ChEMBL document CHEMBL2413072, “Synthesis and in vitro anticancer studies of novel C-2 arylidene congeners of lantadenes” (2013)

Tests used:
Format in all cases: functional
NCI-H23 = assay: Growth inhibition of human NCI-H23 cells by sulforhodamine B assay
SK-MEL-28 [1] = assay: Growth inhibition of human SK-MEL-28 cells assessed as cell growth at 10^-6 M by sulforhodamine B assay; conditions: read-out: Activity
SK-MEL-28 [2] = assay: Growth inhibition of human SK-MEL-28 cells assessed as cell growth at 10^-8 M by sulforhodamine B assay; conditions: read-out: Activity
IGROV-1 [3] = assay: Growth inhibition of human IGROV1 cells assessed as cell growth at 10^-4 M by sulforhodamine B assay; conditions: read-out: Activity
UACC-257 [4] = assay: Growth inhibition of human UACC257 cells assessed as cell growth at 10^-7 M by sulforhodamine B assay; conditions: read-out: Activity
PC-3 = assay: Growth inhibition of human PC3 cells by sulforhodamine B assay
SF-295 [5] = assay: Growth inhibition of human SF295 cells assessed as cell growth at 10^-6 M by sulforhodamine B assay; conditions: read-out: Activity
M14 = assay: Growth inhibition of human M14 cells assessed as cell growth at 10^-8 M by sulforhodamine B assay; conditions: read-out: Activity
DU-145 = assay: Growth inhibition of human DU145 cells assessed as cell growth at 10^-7 M by sulforhodamine B assay; conditions: read-out: Activity
HCT-15 = assay: Growth inhibition of human HCT15 cells assessed as cell growth at 10^-6 M by sulforhodamine B assay; conditions: read-out: Activity
CCRF-CEM [6] = assay: Growth inhibition of human CCRF-CEM cells assessed as cell growth at 10^-4 M by sulforhodamine B assay; conditions: read-out: Activity
SF-295 [7] = assay: Growth inhibition of human SF295 cells assessed as cell growth at 10^-4 M by sulforhodamine B assay; conditions: read-out: Activity
SK-MEL-2 [8] = assay: Growth inhibition of human SK-MEL-2 cells assessed as cell growth at 10^-8 M by sulforhodamine B assay; conditions: read-out: Activity
A498 [9] = assay: Growth inhibition of human A498 cells assessed as cell growth at 10^-4 M by sulforhodamine B assay; conditions: read-out: Activity
BT-549 [10] = assay: Growth inhibition of human BT549 cells assessed as cell growth at 10^-7 M by sulforhodamine B assay; conditions: read-out: Activity
SF-539 = assay: Growth inhibition of human SF539 cells assessed as cell growth at 10^-7 M by sulforhodamine B assay; conditions: read-out: Activity
SNB-75 = assay: Growth inhibition of human SNB75 cells by sulforhodamine B assay
UACC-257 [11] = assay: Growth inhibition of human UACC257 cells assessed as cell growth at 10^-8 M by sulforhodamine B assay; conditions: read-out: Activity
HOP-92 = assay: Growth inhibition of human HOP92 cells assessed as cell growth at 10^-8 M by sulforhodamine B assay; conditions: read-out: Activity
NCI-H322M = assay: Growth inhibition of human NCI-H322M cells by sulforhodamine B assay
BT-549 [12] = assay: Growth inhibition of human BT549 cells by sulforhodamine B assay
UACC-62 = assay: Growth inhibition of human UACC62 cells assessed as cell growth at 10^-7 M by sulforhodamine B assay; conditions: read-out: Activity
OVCAR-3 = assay: Growth inhibition of human OVCAR3 cells by sulforhodamine B assay
KM12 = assay: Growth inhibition of human KM12 cells by sulforhodamine B assay
CCRF-CEM [13] = assay: Growth inhibition of human CCRF-CEM cells by sulforhodamine B assay
HT-29 = assay: Growth inhibition of human HT-29 cells assessed as cell growth at 10^-4 M by sulforhodamine B assay; conditions: read-out: Activity
SK-OV-3 = assay: Growth inhibition of human SKOV3 cells assessed as cell growth at 10^-8 M by sulforhodamine B assay; conditions: read-out: Activity
OVCAR-5 = assay: Growth inhibition of human OVCAR5 cells assessed as cell growth at 10^-7 M by sulforhodamine B assay; conditions: read-out: Activity
A498 [14] = assay: Growth inhibition of human A498 cells assessed as cell growth at 10^-7 M by sulforhodamine B assay; conditions: read-out: Activity
IGROV-1 [15] = assay: Growth inhibition of human IGROV1 cells assessed as cell growth at 10^-7 M by sulforhodamine B assay; conditions: read-out: Activity
786-0 = assay: Growth inhibition of human 786-0 cells assessed as cell growth at 10^-6 M by sulforhodamine B assay; conditions: read-out: Activity
SK-MEL-28 [16] = assay: Growth inhibition of human SK-MEL-28 cells assessed as cell growth at 10^-7 M by sulforhodamine B assay; conditions: read-out: Activity
A549 = assay: Growth inhibition of human A549/ATCC cells assessed as cell growth at 10^-7 M by sulforhodamine B assay; conditions: read-out: Activity
U-251 = assay: Growth inhibition of human U251 cells assessed as cell growth at 10^-8 M by sulforhodamine B assay; conditions: read-out: Activity
CCRF-CEM [17] = assay: Growth inhibition of human CCRF-CEM cells assessed as cell growth at 10^-8 M by sulforhodamine B assay; conditions: read-out: Activity
CAKI-1 = assay: Growth inhibition of human CAKI-1 cells by sulforhodamine B assay
SK-MEL-2 [18] = assay: Growth inhibition of human SK-MEL-2 cells assessed as cell growth at 10^-6 M by sulforhodamine B assay; conditions: read-out: Activity
COLO 205 = assay: Growth inhibition of human COLO205 cells assessed as cell growth at 10^-7 M by sulforhodamine B assay; conditions: read-out: Activity
OVCAR-4 = assay: Growth inhibition of human OVCAR4 cells assessed as cell growth at 10^-4 M by sulforhodamine B assay; conditions: read-out: Activity
[19] = read-out: LC50 (the source's name)
[20] = read-out: pLC50 (the source's name) (converted)

Which results are given for `CC1(C)C[C@@H](O)[C@]2(C(=O)O)CC[C@]3(C)C(=CC[C@@H]4[C@@]5(C)C/C(=C\C=C\c6ccccc6)C(=O)C(C)(C)[C@@H]5CC[C@]43C)[C@@H]2C1`?
GI50 (NCI-H23; read-out: GI50): 3.28 µM; CC50 (NCI-H23; [19]): 43.2 µM; TGI (NCI-H23; read-out: TGI): 12.3 µM; GI50 (NCI-H23; read-out: pGI50 (converted)): 3.31 µM; CC50 (NCI-H23; [20]): 43.7 µM; TGI (NCI-H23; read-out: pTGI (converted)): 12.3 µM; growth at 1 µM (SK-MEL-28 [1]): 97%; growth at 0.01 µM (SK-MEL-28 [2]): 99%; growth at 100 µM (IGROV-1 [3]): -59%; growth at 0.1 µM (UACC-257 [4]): 92%; GI50 (PC-3; read-out: GI50): 3.03 µM; CC50 (PC-3; [19]): 63.7 µM; TGI (PC-3; read-out: TGI): 16.3 µM; GI50 (PC-3; read-out: pGI50 (converted)): 3.02 µM; CC50 (PC-3; [20]): 63.1 µM; TGI (PC-3; read-out: pTGI (converted)): 16.2 µM; growth at 1 µM (SF-295 [5]): 88%; growth at 0.01 µM (M14): 97%; growth at 0.1 µM (DU-145): 104%; growth at 1 µM (HCT-15): 95%; growth at 100 µM (CCRF-CEM [6]): -19%; growth at 100 µM (SF-295 [7]): -66%; growth at 0.01 µM (SK-MEL-2 [8]): 86%; growth at 100 µM (A498 [9]): -97%; growth at 0.1 µM (BT-549 [10]): 103%; growth at 0.1 µM (SF-539): 92%; GI50 (SNB-75; read-out: GI50): 4.27 µM; CC50 (SNB-75; [19]): 63.7 µM; TGI (SNB-75; read-out: TGI): 20.9 µM; GI50 (SNB-75; read-out: pGI50 (converted)): 4.27 µM; CC50 (SNB-75; [20]): 63.1 µM; TGI (SNB-75; read-out: pTGI (converted)): 20.9 µM; growth at 0.01 µM (UACC-257 [11]): 93%; growth at 0.01 µM (HOP-92): 99%; GI50 (NCI-H322M; read-out: GI50): 3.45 µM; LC50 (50% lethal concentration) (NCI-H322M; read-out: LC50): 48.7 µM; TGI (NCI-H322M; read-out: TGI): 13.7 µM; GI50 (NCI-H322M; read-out: pGI50 (converted)): 3.47 µM; LC50 (50% lethal concentration) (NCI-H322M; read-out: pLC50 (converted)): 49 µM; TGI (NCI-H322M; read-out: pTGI (converted)): 13.8 µM; GI50 (BT-549 [12]; read-out: GI50): 3.84 µM; CC50 (BT-549 [12]; [19]): 55.9 µM; TGI (BT-549 [12]; read-out: TGI): 14.8 µM; GI50 (BT-549 [12]; read-out: pGI50 (converted)): 3.8 µM; CC50 (BT-549 [12]; [20]): 56.2 µM; TGI (BT-549 [12]; read-out: pTGI (converted)): 14.8 µM; growth at 0.1 µM (UACC-62): 93%; GI50 (OVCAR-3; read-out: GI50): 2040 nM; CC50 (OVCAR-3; [19]): 14.2 µM; TGI (OVCAR-3; read-out: TGI): 4.81 µM; GI50 (OVCAR-3; read-out: pGI50 (converted)): 2040 nM; CC50 (OVCAR-3; [20]): 14.1 µM; TGI (OVCAR-3; read-out: pTGI (converted)): 4.79 µM; GI50 (KM12; read-out: GI50): 3.01 µM; LC50 (50% net cell kill) (KM12; read-out: LC50): 47.2 µM; TGI (KM12; read-out: TGI): 11.2 µM; GI50 (KM12; read-out: pGI50 (converted)): 3.02 µM; LC50 (50% net cell kill) (KM12; read-out: pLC50 (converted)): 46.8 µM; TGI (KM12; read-out: pTGI (converted)): 11.2 µM; GI50 (CCRF-CEM [13]; read-out: GI50): 2790 nM; CC50 (CCRF-CEM [13]; [19]): > 100 µM; TGI (CCRF-CEM [13]; read-out: TGI): 8.51 µM; GI50 (CCRF-CEM [13]; read-out: pGI50 (converted)): 2820 nM; CC50 (CCRF-CEM [13]; [20]): > 100 µM; TGI (CCRF-CEM [13]; read-out: pTGI (converted)): 8.51 µM; growth at 100 µM (HT-29): -83%; growth at 0.01 µM (SK-OV-3): 96%; growth at 0.1 µM (OVCAR-5): 92%; growth at 0.1 µM (A498 [14]): 78%; growth at 0.1 µM (IGROV-1 [15]): 112%; growth at 1 µM (786-0): 96%; growth at 0.1 µM (SK-MEL-28 [16]): 102%; growth at 0.1 µM (A549): 95%; growth at 0.01 µM (U-251): 92%; growth at 0.01 µM (CCRF-CEM [17]): 95%; GI50 (CAKI-1; read-out: GI50): 3.57 µM; CC50 (CAKI-1; [19]): > 100 µM; TGI (CAKI-1; read-out: TGI): 17.7 µM; GI50 (CAKI-1; read-out: pGI50 (converted)): 3.55 µM; CC50 (CAKI-1; [20]): > 100 µM; TGI (CAKI-1; read-out: pTGI (converted)): 17.8 µM; growth at 1 µM (SK-MEL-2 [18]): 100%; growth at 0.1 µM (COLO 205): 100%; growth at 100 µM (OVCAR-4): -97%
